Measurements: patent US4206120A, “Oxaazabicycloheptane antibiotics” (Beecham Group Limited, priority 1976, dated 1980)

Assays:
[1] = target: T1, Lactamase, Staph. aureus Russell (Staphylococcus aureus, UniProt P00807); assay: Lactamase inhibition, enzyme from Staph. aureus Russell; format: biochemical; settings: source of enzyme Staph. aureus Russell; read-out: Lactamase inhibition I50 (converted)
T1 construct: Source of; endogenous in cells; host or cells: Staphylococcus aureus strain Russell

[2] = target: Lactamase, Kleb. aerogenes E70; assay: Lactamase inhibition, enzyme from Kleb. aerogenes E70; format: biochemical; settings: source of enzyme Kleb. aerogenes E70
[3] = target: Lactamase, Proteus mirabilis C889; assay: Lactamase inhibition, enzyme from Proteus mirabilis C889; format: biochemical; settings: source of enzyme Proteus mirabilis C889
[4] = target: T2, Lactamase, Pseudomonas aerogenosa Dalgleish (Pseudomonas aeruginosa, UniProt P16897); assay: Lactamase inhibition, enzyme from Pseudomonas aerogenosa Dalgleish; format: biochemical; settings: source of enzyme Pseudomonas aerogenosa Dalgleish; read-out: Lactamase inhibition I50 (converted)
T2 construct: Source of; endogenous in cells; host or cells: Pseudomonas aeruginosa strain Dalgleish

Lactamase, E. coli JT 4 = target: T3, Lactamase, E. coli JT 4 (Escherichia coli, UniProt P62593); assay: Lactamase inhibition, enzyme from E. coli JT 4; format: biochemical; settings: source of enzyme E. coli JT 4; read-out: Lactamase inhibition I50 (converted)
T3 construct: Source of; endogenous in cells; host or cells: Escherichia coli strain JT 4

[5] = target: T4, Lactamase, Enterobacter P99 (Enterobacter cloacae, UniProt P05364); assay: Lactamase inhibition, enzyme from Enterobacter P99; format: biochemical; settings: source of enzyme Enterobacter P99; read-out: Lactamase inhibition I50 (converted)
T4 construct: Source of; endogenous in cells; host or cells: Enterobacter (cloacae) strain P99

mice = assay: Acute toxicity in mice, subcutaneous; format: in vivo
[6] = test system: Staphylococcus aureus Russell; assay: Effect on MIC of ampicillin against β-lactamase producing bacteria, Staphylococcus aureus Russell; format: cell-based; settings: ampicillin alone, Staph. aureus Russell
Protocol: (§1) a. Compounds of this invention were tested by conventional methods to determine their effect on the MIC (minimum inhibitory concentration) values of ampicillin against certain β-lactamase producing bacteria. The results for the compounds of the formula [drawing 124] were as follows: […]

Klebsiella aerogenes E70 = assay: Effect on MIC of ampicillin against β-lactamase producing bacteria, Klebsiella E 70; format: cell-based; settings: ampicillin alone
Protocol: as §1

T2 sequence (P16897 18-288): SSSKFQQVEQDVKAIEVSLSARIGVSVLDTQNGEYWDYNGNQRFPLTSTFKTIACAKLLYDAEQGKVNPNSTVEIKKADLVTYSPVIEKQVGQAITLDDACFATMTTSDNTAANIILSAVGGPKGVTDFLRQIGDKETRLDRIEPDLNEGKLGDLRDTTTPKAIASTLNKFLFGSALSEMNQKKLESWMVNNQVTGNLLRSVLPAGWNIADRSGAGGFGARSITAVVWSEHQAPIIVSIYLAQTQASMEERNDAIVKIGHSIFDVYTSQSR
T1 sequence (P00807 25-281): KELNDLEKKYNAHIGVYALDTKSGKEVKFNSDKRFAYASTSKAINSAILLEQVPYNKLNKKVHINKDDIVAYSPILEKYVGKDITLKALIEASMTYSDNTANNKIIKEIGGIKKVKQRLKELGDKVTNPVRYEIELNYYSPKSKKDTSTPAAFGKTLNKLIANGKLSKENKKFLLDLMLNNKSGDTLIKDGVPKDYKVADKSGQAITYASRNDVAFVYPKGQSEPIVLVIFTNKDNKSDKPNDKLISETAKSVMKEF
T4 sequence (P05364 21-381): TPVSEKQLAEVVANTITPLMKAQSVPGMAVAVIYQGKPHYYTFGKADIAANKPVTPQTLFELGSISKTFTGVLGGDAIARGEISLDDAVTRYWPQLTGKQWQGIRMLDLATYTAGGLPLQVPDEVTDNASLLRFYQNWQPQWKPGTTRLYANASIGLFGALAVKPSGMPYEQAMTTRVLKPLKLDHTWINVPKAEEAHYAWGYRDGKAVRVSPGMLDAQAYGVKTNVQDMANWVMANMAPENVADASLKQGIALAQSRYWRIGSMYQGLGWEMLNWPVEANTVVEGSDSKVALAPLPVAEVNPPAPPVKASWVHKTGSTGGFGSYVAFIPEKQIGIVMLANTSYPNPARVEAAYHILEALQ
T3 sequence (P62593 24-286 limits assumed): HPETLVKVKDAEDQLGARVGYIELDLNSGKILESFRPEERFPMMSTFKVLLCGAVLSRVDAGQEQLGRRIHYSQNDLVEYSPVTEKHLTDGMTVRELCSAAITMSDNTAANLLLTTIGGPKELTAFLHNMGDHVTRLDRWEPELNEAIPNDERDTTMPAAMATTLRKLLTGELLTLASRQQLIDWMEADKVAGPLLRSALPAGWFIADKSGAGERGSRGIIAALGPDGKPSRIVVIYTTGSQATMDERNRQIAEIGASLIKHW

Row | Compound | IC50 [1] | Lactamase inhibition I50 [2] | Lactamase inhibition I50 [3] | IC50 [4] | IC50 (Lactamase, E. coli JT 4) | IC50 [5] | other results
1 | C[C@@H](NC(=O)/C=C1\CN2C(=O)C[C@H]2O1)c1ccccc1 [Example 5-R-epimer, (E)-5-R-3-[N-(R-1-Phenylethyl)carbamoylmethylene]-4-oxa-1-azabicyclo [3.2.0]heptan-7-one] | 0.918 µM | 2.4 µg/mL | 0.6 µg/mL | 2.39 µM | 1.47 µM | 1.47 µM | –
2 | O=C(O)[C@H]1/C(=C/c2ccccc2)O[C@@H]2CC(=O)N21 (relative stereo) [Z1=CO2 Na, Z2=H, Z3=C6 H5, Sodium (Z)-(2RS,5RS)-(3-benzylidene)-7-oxo-4-oxa-1-azabicyclo[3,2,0]-heptane-2-carboxylate] | – | – | – | – | – | – | deaths in a group of mice (mice; subcutaneously at 1000 mg/kg): did not cause any deaths
3 | O=C(O)/C(=C1\CN2C(=O)CC2O1)c1ccccc1 (stereo not shown) [Z1=H, Z2=CO2 Na, Z3=C6 H5, Sodium (E)-7-oxo-4-oxa-1-azabicyclo[3.2.0]heptane-3-(benzylidene-1-carboxylate)] | – | – | – | – | – | – | deaths in a group of mice (mice; subcutaneously at 250 mg/kg): did not cause any deaths
4 | C[C@@H](NC(=O)/C=C1\CN2C(=O)C[C@@H]2O1)c1ccccc1 [Example 5-S-epimer, (E)-5-S-[N-(R-1-Phenylethyl)carbamoylmethylene]-4-oxa-1-azabicyclo[3.2.0]heptan-7-one] | 47.7 µM | > 40 µg/mL | 8.8 µg/mL | 64.6 µM | 21.3 µM | 4.41 µM | –
5 | CC1(C)S[C@@H]2[C@H](NC(=O)[C@H](N)c3ccccc3)C(=O)N2[C@H]1C(=O)O [ampicillin] | – | – | – | – | – | – | MIC [6]: 250 µg/mL; MIC (Klebsiella aerogenes E70): > 2000 µg/mL
